Values of other authors, collected in patent publication US20090275559A1, “Chronotherapeutic formulations of modified-release calcium channel blocker anti-hypertensive drugs in combination with other anti-hypertensive drugs for 24-hour optimal treatment of hypertension, nocturnal hypertension, and/or hypertension with angina” (Blue Note Pharmaceuticals, Inc., priority 2008, published 2009).

Assays:
[1] = extensive first-pass metabolism in the liver
[2] = low pHs (0.1 N HCl)

Row | plasma half-life [1] | water solubility [2] | Structure (SMILES)
1 | 2 to 6 h | – | COc1ccc([C@@H]2Sc3ccccc3N(CCN(C)C)C(=O)[C@@H]2OC(C)=O)cc1 [diltiazem]
2 | – | low | CCCCC1=NC2(CCCC2)C(=O)N1Cc1ccc(-c2ccccc2-c2nnn[nH]2)cc1 [Irbesartan]
